Results: patent publication US6737383B1, “Herbicidal oxadiazolidines” (priority 1999, dated 2004)

Columns and labels:
[1] = test system: corn; assay: Test B pre/postemergence corn; type: in vivo, Zea mays
In short: (§1)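 Test chemicals in a non-phytotoxic solvent mixture with surfactant were sprayed preemergence onto planted seeds and postemergence onto plants 2 to 18 cm tall (1- to 4-leaf stage). After twelve to sixteen days in a greenhouse, injury was visually rated against untreated controls from 0 (no effect) to 10 (complete control).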

[2] = test system: pigweed; assay: Test B pre/postemergence pigweed; type: in vivo, Amaranthus retroflexus
In short: as §1

[3] = test system: purple nutsedge; assay: Test B pre/postemergence purple nutsedge; type: in vivo, Cyperus rotundus
In short: as §1

[4] = test system: rape; assay: Test B pre/postemergence rape; type: in vivo, Brassica napus
In short: as §1

[5] = test system: sugar beet; assay: Test B pre/postemergence sugar beet; type: in vivo, Beta vulgaris
In short: as §1

[6] = test system: wild oat; assay: Test B pre/postemergence wild oat; type: in vivo, Avena fatua
In short: as §1

[7] = test system: crabgrass; assay: Test B pre/postemergence crabgrass; type: in vivo, Digitaria sanguinalis
In short: as §1

[8] = test system: blackgrass; assay: Test B pre/postemergence blackgrass; type: in vivo, Alopecurus myosuroides
In short: as §1

[9] = test system: smallflower flatsedge; assay: Test B flood test smallflower flatsedge; type: in vivo, Cyperus difformis
In short: (§2)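 Plants were grown to the 2-leaf stage before treatment with test chemical, then held in a greenhouse for twelve to sixteen days. Injury was visually rated against untreated controls on a 0–10 scale, where 0 is no effect and 10 is complete control.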

[10] = test system: rice; assay: Test B flood test rice; type: in vivo, Oryza sativa
In short: as §2

[11] = test system: bedstraw; assay: Test B pre/postemergence bedstraw; type: in vivo, Galium aparine
In short: as §1

[12] = test system: wheat; assay: Test B pre/postemergence wheat; type: in vivo, Triticum aestivum
In short: as §1

[13] = test system: soybean; assay: Test B pre/postemergence soybean; type: in vivo, Glycine max
In short: as §1

[14] = test system: velvetleaf; assay: Test B pre/postemergence velvetleaf; type: in vivo, Abutilon theophrasti
In short: as §1

[15] = test system: surinam grass; assay: Test B pre/postemergence surinam grass; type: in vivo, Brachiaria decumbens
In short: as §1

[16] = test system: duck salad; assay: Test B flood test duck salad; type: in vivo, Heteranthera limosa
In short: as §2

[17] = Preemergence, Rate 62 g/ha, scale of 0 to 10 where 0 is no effect and 10 is complete control
[18] = Preemergence, Rate 250 g/ha, scale of 0 to 10 where 0 is no effect and 10 is complete control
[19] = Preemergence, Rate 500 g/ha, scale of 0 to 10 where 0 is no effect and 10 is complete control
[20] = Rate 62 g/ha, Postemergence, scale 0 to 10, 0 no effect, 10 complete control
[21] = Rate 125 g/ha, Postemergence, scale of 0 to 10 where 0 is no effect and 10 is complete control
[22] = Rate 250 g/ha, Postemergence, scale of 0 to 10 where 0 is no effect and 10 is complete control
[23] = Rate 500 g/ha, Postemergence, scale 0 to 10, 0 no effect, 10 complete control
[24] = Rate 62 g/ha, headed Pre-emergence (flood test species), scale 0 to 10 (0 no effect, 10 complete control)
[25] = Rate 125 g/ha, Pre-emergence, flood test species, scale 0 to 10 where 0 is no effect and 10 is complete control
[26] = Rate 250 g/ha, Pre-emergence, flood-test species, scale 0 to 10, 0 is no effect, 10 is complete control
[27] = Rate 500 g/ha, Pre-emergence, flood test species, scale 0 to 10 (0 no effect, 10 complete control)

Cc1ccccc1-n1c(=O)on(C(=O)N(c2ccncc2)C(C)C)c1=O [Compound 301]
0: Corn plant response rating [1, 17] | Corn plant response rating (0 to 10 scale) ([1]; Preemergence, Rate 125 g/ha) | Corn plant response rating [1, 18] | Corn plant response rating [1, 19] | Corn plant response rating [1, 20] | Corn plant response rating [1, 21] | Plant response rating, Corn [1, 22] | Corn plant response rating [1, 23] | Redroot pigweed plant response rating [2, 17] | Redroot pigweed plant response rating (0 to 10 scale) ([2]; Preemergence, Rate 125 g/ha) | Redroot pigweed plant response rating [2, 18] | Redroot pigweed plant response rating [2, 19] | Redroot pigweed plant response rating [2, 20] | Redroot pigweed plant response rating [2, 21] | Plant response rating, Redroot pigweed [2, 22] | Nutsedge plant response rating [3, 17] | Nutsedge plant response rating (0 to 10 scale) ([3]; Preemergence, Rate 125 g/ha) | Nutsedge plant response rating [3, 18] | Nutsedge plant response rating [3, 19] | Nutsedge plant response rating [3, 20] | Nutsedge plant response rating [3, 21] | Plant response rating, Nutsedge [3, 22] | Rape plant response rating [4, 17] | Rape plant response rating (0 to 10 scale) ([4]; Preemergence, Rate 125 g/ha) | Rape plant response rating [4, 18] | Rape plant response rating [4, 19] | Rape plant response rating [4, 20] | Rape plant response rating [4, 21] | Plant response rating, Rape [4, 22] | Sugarbeets plant response rating [5, 17] | Sugarbeets plant response rating (0 to 10 scale) ([5]; Preemergence, Rate 125 g/ha) | Sugarbeets plant response rating [5, 18] | Sugarbeets plant response rating [5, 19] | Sugarbeets plant response rating [5, 20] | Sugarbeets plant response rating [5, 21] | Plant response rating, Sugarbeets [5, 22] | Wild oats plant response rating [6, 17] | Wild oats plant response rating (0 to 10 scale) ([6]; Preemergence, Rate 125 g/ha) | Wild oats plant response rating [6, 18] | Wild oats plant response rating [6, 19] | Wild oats plant response rating [6, 20] | Wild oats plant response rating [6, 21] | Plant response rating, Wild oats [6, 22] | Crabgrass plant response rating [7, 17] | Crabgrass plant response rating (0 to 10 scale) ([7]; Preemergence, Rate 125 g/ha) | Crabgrass plant response rating [7, 18] | Crabgrass plant response rating [7, 19] | Crabgrass plant response rating [7, 20] | Crabgrass plant response rating [7, 21] | Plant response rating, Crabgrass [7, 22] | Blackgrass plant response rating [8, 17] | Blackgrass plant response rating (0 to 10 scale) ([8]; Preemergence, Rate 125 g/ha) | Blackgrass plant response rating [8, 18] | Blackgrass plant response rating [8, 19] | Blackgrass plant response rating [8, 20] | Blackgrass plant response rating [8, 21] | Plant response rating, Blackgrass [8, 22] | Blackgrass plant response rating [8, 23] | S. Flatsedge plant response rating [9, 24] | S. Flatsedge plant response rating [9, 25] | S. Flatsedge plant response rating [9, 26] | S. Flatsedge plant response rating [9, 27] | Rice plant response rating [10, 24] | Rice plant response rating [10, 25] | Rice plant response rating [10, 26] | Rice plant response rating [10, 27] | Bedstraw plant response rating [11, 17] | Bedstraw plant response rating (0 to 10 scale) ([11]; Preemergence, Rate 125 g/ha) | Bedstraw plant response rating [11, 18] | Bedstraw plant response rating [11, 19] | Bedstraw plant response rating [11, 20] | Bedstraw plant response rating [11, 21] | Wheat plant response rating [12, 17] | Wheat plant response rating (0 to 10 scale) ([12]; Preemergence, Rate 125 g/ha) | Wheat plant response rating [12, 18] | Wheat plant response rating [12, 19] | Wheat plant response rating [12, 20] | Wheat plant response rating [12, 21] | Plant response rating, Wheat [12, 22] | Soybean plant response rating [13, 17] | Soybean plant response rating (0 to 10 scale) ([13]; Preemergence, Rate 125 g/ha) | Soybean plant response rating [13, 18] | Soybean plant response rating [13, 19] | Soybean plant response rating [13, 20] | Soybean plant response rating [13, 21] | Plant response rating, Soybean [13, 22] | Velvetleaf plant response rating [14, 17] | Velvetleaf plant response rating (0 to 10 scale) ([14]; Preemergence, Rate 125 g/ha) | Velvetleaf plant response rating [14, 18] | Velvetleaf plant response rating [14, 19] | Velvetleaf plant response rating [14, 20] | Velvetleaf plant response rating [14, 21] | Plant response rating, Velvetleaf [14, 22] | B. signalgrass plant response rating [15, 17] | B. signalgrass plant response rating (0 to 10 scale, 0 is no effect, 10 is complete control) ([15]; Preemergence, Rate 125 g/ha) | B. signalgrass plant response rating [15, 18] | B. signalgrass plant response rating [15, 19] | B. signalgrass plant response rating [15, 20] | B. signalgrass plant response rating [15, 21] | Plant response rating, B. signalgrass [15, 22] | B. signalgrass plant response rating [15, 23] | Ducksalad plant response rating [16, 24] | Ducksalad plant response rating [16, 25] | Ducksalad plant response rating [16, 26] | Ducksalad plant response rating [16, 27]
